Values of other authors in patent US8580245B2, “Compositions and methods for treating and preventing cardiomyopathy and heart disease” (The Regents of the University of Michigan, priority 2005, dated 2013).

Tested on: elderly men with isolated diastolic dysfunction
Details: verapamil vs placebo, 20 elderly men, p<0.05

## COc1ccc(CCN(C)CCCC(C#N)(c2ccc(OC)c(OC)c2)C(C)C)cc1OC (stereo not shown) [verapamil]
  exercise time increase: 33%
  heart rate decrease: 10%
  peak left ventricular filling rate increase: 30%
  symptoms: improved
